Measured values taken from patent publication US7772263B2, “Compounds for the treatment of inflammatory disorders” (Schering Corporation, priority 2006, dated 2010).

Each compound was assayed against T1, purified catalytic domain of recombinant human TACE (rhTACEc) (Homo sapiens, UniProt P78536, N452Q/S266A) (assay: TACE kinetic assay, cleavage of internally quenched fluorescent peptide substrate SPDL-3). Conditions: TACE inhibition, Table 1001; read-out: Ki Rating.
T1 construct: rhTACEc, Residue 215 to 477 with two mutation (S266A and N4520) and a 6×His tail; 6xHis (C); made in house; host or cells: baculovirus/Hi5 insect cells
T1 sequence (P78536 215-477 S266A/N452Q limits assumed): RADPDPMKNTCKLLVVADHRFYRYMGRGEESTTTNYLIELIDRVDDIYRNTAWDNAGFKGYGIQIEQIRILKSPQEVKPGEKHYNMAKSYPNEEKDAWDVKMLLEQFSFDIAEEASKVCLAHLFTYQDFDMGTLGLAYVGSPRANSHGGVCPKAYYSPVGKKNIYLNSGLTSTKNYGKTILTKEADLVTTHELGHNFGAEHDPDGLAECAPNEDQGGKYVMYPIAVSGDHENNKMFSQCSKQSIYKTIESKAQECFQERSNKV
Assay type: biochemical

Q: How did the Ki turn out when `COc1ccc2c(c1)C(=O)N(C[C@@]1(C#Cc3cnc4c(ccn4C)c3)NC(=O)NC1=O)C2` [Compound 941] was run?
A: < 5 nM

Q: With `COc1ccc2c(c1)C(=O)N(C[C@@]1(C#Cc3cc(C)cc(F)c3)NC(=O)NC1=O)C2` [Compound 439] as the compound, how does the Ki read?
A: < 5 nM

Q: How did the Ki turn out when `COc1ccc2c(c1)C(=O)N(C[C@@]1(C#Cc3ccc(S(N)(=O)=O)s3)NC(=O)NC1=O)C2` [Compound 522] was run?
A: < 5 nM

Same assay, conditions: TACE; class letters A-D; read-out: Ki Rating

Q: For `CNC(=O)c1ccc(C#C[C@]2(CN3Cc4ccc(OC)cc4C3=O)NC(=O)NC2=O)cc1` [Compound 1141], which Ki is on record?
A: < 5 nM

Q: Which Ki does the source give for `COc1ccc2c(c1)C(=O)N(C[C@@]1(C#Cc3ccc(C(N)=O)cc3)NC(=O)NC1=O)C2` [Compound 1133] here?
A: < 5 nM

Q: Which Ki does the source give for `COc1ccc2c(c1)C(=O)N(C[C@@]1(C#Cc3cncc(-c4nnn(C(C)C)n4)c3)NC(=O)NC1=O)C2` [Compound 1220] here?
A: < 5 nM

Q: With `COc1ccc2c(c1)C(=O)N(C[C@]1(C#Cc3ccc(C(C)O)cc3)NC(=O)NC1=O)C2` (stereo partly shown) [Compound 1075] as the compound, how does the Ki read?
A: > 100 nM
